Measurements published in ChEMBL document CHEMBL5104103 (J Med Chem, 2022).
pIC50: −log10 of the molar value.

Legend:
[1] = Cmax in rat at 20 mg/kg, po or 2 mg/kg, iv; assay type: ADME, organism-based; set-up: dose 20 mg/kg, route po; settings: in vivo
[2] = AUC in rat at 20 mg/kg, po or 2 mg/kg, iv; assay type: ADME, organism-based; set-up: dose 20 mg/kg, route po; settings: in vivo
[3] = target: T1, Tyrosine-protein kinase BTK (Homo sapiens, UniProt Q06187); assay: Inhibition of BTK (unknown origin) using peptide substrate in presence of ATP by caliper electrophoresis method
T1 sequence (Q06187 whole entry): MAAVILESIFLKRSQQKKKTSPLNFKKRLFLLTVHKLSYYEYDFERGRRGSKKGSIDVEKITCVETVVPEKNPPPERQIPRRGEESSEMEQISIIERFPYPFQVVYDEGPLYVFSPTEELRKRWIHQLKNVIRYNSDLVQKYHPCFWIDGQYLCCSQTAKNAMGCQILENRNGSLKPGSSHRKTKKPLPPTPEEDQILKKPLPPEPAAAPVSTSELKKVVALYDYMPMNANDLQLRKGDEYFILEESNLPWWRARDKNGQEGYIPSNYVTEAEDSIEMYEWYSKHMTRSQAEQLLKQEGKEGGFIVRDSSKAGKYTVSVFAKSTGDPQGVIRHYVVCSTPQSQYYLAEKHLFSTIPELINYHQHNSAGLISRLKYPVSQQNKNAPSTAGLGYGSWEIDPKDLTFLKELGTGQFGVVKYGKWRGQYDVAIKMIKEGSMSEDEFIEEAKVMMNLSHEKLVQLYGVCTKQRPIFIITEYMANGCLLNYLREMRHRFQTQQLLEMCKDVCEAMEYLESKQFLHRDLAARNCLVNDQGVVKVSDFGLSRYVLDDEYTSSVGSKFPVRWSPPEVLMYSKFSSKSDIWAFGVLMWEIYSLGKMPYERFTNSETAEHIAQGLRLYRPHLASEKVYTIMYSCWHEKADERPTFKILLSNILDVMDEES

[4] = target: T1, Tyrosine-protein kinase BTK; assay: Inhibition of biotinylated-labeled BTK-selective probe binding to BTK in human Ramos assessed as target occupancy pretreated for 1 hr followed by probe addition measured for 18 hrs by AlphaScreen assay; assay type: cell-based
[5] = target: Receptor tyrosine-protein kinase erbB-4 (Homo sapiens, UniProt Q15303); assay: Inhibition of ERBB4 (unknown origin) using peptide substrate in presence of ATP by caliper electrophoresis method
Chain of Receptor tyrosine-protein kinase erbB-4 (Q15303 whole entry): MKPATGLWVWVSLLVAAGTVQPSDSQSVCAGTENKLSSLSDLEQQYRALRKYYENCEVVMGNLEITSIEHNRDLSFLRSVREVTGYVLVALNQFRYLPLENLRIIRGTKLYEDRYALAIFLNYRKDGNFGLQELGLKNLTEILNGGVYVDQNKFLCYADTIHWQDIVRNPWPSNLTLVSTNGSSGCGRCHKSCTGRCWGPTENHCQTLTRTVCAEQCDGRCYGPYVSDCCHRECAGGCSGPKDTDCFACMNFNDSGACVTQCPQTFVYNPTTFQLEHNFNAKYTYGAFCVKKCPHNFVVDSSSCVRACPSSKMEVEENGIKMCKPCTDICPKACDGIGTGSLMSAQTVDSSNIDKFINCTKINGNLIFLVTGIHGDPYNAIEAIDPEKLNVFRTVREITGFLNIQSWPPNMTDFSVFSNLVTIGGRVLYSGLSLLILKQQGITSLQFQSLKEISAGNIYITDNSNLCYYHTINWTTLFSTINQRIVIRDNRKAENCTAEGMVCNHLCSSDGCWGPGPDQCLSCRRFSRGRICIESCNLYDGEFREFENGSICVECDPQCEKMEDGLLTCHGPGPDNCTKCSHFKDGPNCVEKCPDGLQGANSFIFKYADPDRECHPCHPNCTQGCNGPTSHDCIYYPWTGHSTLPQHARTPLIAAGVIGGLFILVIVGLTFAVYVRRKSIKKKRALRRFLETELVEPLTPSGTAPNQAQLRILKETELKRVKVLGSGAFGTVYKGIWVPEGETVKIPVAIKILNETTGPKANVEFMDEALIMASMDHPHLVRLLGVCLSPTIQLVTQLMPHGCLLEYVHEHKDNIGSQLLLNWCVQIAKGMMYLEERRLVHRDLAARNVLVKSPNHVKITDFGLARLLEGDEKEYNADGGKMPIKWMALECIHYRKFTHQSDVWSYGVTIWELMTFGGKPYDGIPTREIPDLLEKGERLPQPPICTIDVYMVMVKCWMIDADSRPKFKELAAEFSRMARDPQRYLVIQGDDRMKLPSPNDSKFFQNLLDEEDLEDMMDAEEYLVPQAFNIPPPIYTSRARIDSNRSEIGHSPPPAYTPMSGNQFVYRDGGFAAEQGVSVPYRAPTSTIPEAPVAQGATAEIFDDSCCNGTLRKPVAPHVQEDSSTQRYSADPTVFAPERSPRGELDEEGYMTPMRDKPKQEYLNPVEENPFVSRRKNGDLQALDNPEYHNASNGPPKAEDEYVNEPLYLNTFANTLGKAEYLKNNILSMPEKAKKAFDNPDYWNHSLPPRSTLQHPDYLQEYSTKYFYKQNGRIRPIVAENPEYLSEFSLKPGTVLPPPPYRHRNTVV

[6] = target: T2, Tyrosine-protein kinase ITK/TSK (Homo sapiens, UniProt Q08881); assay: Inhibition of ITK (unknown origin) using peptide substrate in presence of ATP by caliper electrophoresis method
T2 sequence (Q08881 whole entry): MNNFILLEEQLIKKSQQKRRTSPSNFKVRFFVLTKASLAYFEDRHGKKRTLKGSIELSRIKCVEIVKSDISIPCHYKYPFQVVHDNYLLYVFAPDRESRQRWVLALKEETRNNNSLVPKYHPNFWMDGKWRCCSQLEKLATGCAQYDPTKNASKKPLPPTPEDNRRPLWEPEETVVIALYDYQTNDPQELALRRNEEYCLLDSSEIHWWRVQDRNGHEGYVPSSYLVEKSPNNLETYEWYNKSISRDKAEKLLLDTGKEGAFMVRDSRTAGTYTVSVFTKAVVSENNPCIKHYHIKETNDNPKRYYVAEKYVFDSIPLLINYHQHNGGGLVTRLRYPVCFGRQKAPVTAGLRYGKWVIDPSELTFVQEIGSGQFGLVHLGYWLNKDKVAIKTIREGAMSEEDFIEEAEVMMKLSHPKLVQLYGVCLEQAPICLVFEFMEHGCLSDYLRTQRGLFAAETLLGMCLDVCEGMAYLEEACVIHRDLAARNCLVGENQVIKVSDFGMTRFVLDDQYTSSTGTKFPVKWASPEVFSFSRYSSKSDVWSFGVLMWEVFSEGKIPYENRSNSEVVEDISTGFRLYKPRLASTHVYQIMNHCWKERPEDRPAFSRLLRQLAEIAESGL

[7] = target: T3, Tyrosine-protein kinase Tec (Homo sapiens, UniProt P42680); assay: Inhibition of TEC (unknown origin) using peptide substrate in presence of ATP by caliper electrophoresis method
T3 sequence (P42680 whole entry): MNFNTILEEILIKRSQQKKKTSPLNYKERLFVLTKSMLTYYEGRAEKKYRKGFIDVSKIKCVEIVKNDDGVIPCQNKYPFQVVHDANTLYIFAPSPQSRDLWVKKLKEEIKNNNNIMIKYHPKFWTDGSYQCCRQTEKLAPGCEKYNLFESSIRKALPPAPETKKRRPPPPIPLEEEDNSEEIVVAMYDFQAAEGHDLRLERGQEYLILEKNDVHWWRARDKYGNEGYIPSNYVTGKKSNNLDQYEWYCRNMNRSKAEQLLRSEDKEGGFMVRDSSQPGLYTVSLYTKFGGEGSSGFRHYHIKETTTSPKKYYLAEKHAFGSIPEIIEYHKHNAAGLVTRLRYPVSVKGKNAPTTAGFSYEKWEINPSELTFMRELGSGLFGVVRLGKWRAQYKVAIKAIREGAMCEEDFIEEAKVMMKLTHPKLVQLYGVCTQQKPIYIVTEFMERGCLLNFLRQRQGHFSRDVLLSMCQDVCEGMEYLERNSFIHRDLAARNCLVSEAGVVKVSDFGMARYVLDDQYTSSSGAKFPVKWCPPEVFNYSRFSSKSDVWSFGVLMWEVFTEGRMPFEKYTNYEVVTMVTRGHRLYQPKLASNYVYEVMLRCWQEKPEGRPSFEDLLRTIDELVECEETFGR

[8] = target: T4, Tyrosine-protein kinase TXK (Homo sapiens) (UniProt P42681); assay: Displacement of competitive tracer from RLK (unknown origin) assessed as target occupancy at […] preincubated for 15 mins measured for 1 hr relative to control; settings: dose 1.5 µM
T4 sequence (whole entry): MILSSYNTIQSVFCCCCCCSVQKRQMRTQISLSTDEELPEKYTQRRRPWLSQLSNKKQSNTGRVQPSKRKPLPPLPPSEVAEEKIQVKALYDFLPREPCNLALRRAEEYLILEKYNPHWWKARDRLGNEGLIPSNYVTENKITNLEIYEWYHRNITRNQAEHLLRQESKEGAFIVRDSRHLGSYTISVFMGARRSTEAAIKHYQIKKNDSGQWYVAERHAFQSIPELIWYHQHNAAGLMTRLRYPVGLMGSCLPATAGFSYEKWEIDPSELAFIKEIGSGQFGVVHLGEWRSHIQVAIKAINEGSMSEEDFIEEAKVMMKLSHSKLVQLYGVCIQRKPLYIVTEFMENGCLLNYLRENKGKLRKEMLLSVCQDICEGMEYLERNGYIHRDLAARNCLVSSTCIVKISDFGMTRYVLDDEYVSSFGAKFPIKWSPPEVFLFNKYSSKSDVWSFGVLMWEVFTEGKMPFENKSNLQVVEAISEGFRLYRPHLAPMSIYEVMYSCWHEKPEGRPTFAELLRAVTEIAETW

[9] = Permeability across apical to basolateral membrane in human Caco-2 cells; assay type: ADME, cell-based; settings: read-out: permeability
[10] = Drug concentration in plasma of collagen-induced arthritis Lewis rat model 10 mg/kg/day, po measured after 12 hrs post-collection of plasma; assay type: ADME, organism-based
[11] = target: Adenosine receptor A3 (Homo sapiens) (UniProt P0DMS8); assay: Displacement of [125I]AB-MECA from recombinant human Adenosine receptor A3 at 10 uM incubated for 120 mins by radiometric scintillation assay relative to control
Chain of Adenosine receptor A3 (Homo sapiens) (P0DMS8 whole entry): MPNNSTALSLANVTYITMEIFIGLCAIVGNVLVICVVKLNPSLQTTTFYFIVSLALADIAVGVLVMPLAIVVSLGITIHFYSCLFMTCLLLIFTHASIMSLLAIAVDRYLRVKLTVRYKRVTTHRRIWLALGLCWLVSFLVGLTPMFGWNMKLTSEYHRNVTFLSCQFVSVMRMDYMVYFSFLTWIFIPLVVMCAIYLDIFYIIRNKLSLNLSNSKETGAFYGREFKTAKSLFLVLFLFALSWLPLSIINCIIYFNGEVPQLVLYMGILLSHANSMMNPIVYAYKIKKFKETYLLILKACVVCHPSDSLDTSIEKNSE

[12] = target: Sodium-dependent dopamine transporter (Homo sapiens) (UniProt Q01959); assay: Displacement of [3H]BTCP from recombinant human dopamine transporter DAT at 10 uM incubated for 120 mins by radiometric scintillation assay relative to control
Chain of Sodium-dependent dopamine transporter (Homo sapiens) (Q01959 whole entry): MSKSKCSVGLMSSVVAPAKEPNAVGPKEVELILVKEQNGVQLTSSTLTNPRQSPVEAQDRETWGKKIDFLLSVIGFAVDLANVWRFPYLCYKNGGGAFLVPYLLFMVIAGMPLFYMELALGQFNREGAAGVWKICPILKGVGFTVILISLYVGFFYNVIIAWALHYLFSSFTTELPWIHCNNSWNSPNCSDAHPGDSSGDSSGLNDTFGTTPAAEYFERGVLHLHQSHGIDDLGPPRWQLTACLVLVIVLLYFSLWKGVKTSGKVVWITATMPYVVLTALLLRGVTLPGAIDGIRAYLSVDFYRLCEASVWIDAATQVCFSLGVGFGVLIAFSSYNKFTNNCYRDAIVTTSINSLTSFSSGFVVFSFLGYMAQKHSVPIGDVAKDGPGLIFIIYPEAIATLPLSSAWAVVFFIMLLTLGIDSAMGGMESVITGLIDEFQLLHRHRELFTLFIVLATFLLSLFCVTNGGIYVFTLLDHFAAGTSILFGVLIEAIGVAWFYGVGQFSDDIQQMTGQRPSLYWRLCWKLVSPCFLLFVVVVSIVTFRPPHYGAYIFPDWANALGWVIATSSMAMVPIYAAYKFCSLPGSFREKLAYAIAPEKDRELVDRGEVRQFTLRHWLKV

[13] = Toxicity in male Beagle dog assessed as drug tolerance up to 400 mg/kg/day qd for 12 weeks; assay type: organism-based, Canis lupus familiaris; settings: in vivo, 2016 h
[14] = Toxicity in female Beagle dog assessed as weight loss up to 400 mg/kg/day qd for 12 weeks; assay type: organism-based, Canis lupus familiaris; settings: in vivo, 2016 h
[15] = Clearance in rat at 2 mg/kg, iv; assay type: ADME, organism-based; settings: in vivo

Cmax [1] | AUC [2] | pIC50 [3] | pIC50 [4] | pIC50 [5] | pIC50 [6] | pIC50 [7] | Activity [8] | Papp A→B [9] | concentration at 12 h [10] | inhibition [11] | inhibition [12] | clearance [15] | AUC ([2]; read-out: AUC) | Structure (SMILES) | Activity [13] | Activity [14]
326 ng/mL | 1071 ng·h/mL | 8.74 | 7.52 | 7.66 | 6.52 | 8.72 | 88% | 0.5 ×10⁻⁶ cm/s | 10 ng/mL | > 50% | > 50% | – | – | CC(C)(C)/C=C(\C#N)C(=O)N1CCC[C@@H](n2nc(-c3ccc(Oc4ccccc4)cc3F)c3c(N)ncnc32)C1 [ATUZABRUTINIB] | Non-Toxic | Toxic
406 ng/mL | – | 7.14 | 7.44 | 6.75 | < 5.30 | 8.35 | – | 6.8 ×10⁻⁶ cm/s | – | – | – | 120 mL/min/kg | 478 ng·h/mL | CC(C)(/C=C(/C#N)C(=O)N1CCC[C@@H]1Cn1nc(-c2ccc(Oc3ccccc3)cc2F)c2c(N)ncnc21)N1CCOCC1 | – | –
96.5 ng/mL | – | – | – | 7.39 | 6.96 | 9.30 | – | 1 ×10⁻⁶ cm/s | – | – | – | 119 mL/min/kg | 568 ng·h/mL | CN1CCN(C(C)(C)/C=C(\C#N)C(=O)N2CCC[C@@H](n3nc(-c4ccc(Oc5ccccc5)cc4F)c4c(N)ncnc43)C2)CC1 | – | –
